Experimental data from patent US11396497B2, “Proteasome inhibitors” (New Mexico Tech University Research Park Corporation, priority 2018, dated 2022).
Like-named read-outs stand apart in the source and are kept apart here.

What was measured:
MDA-MB-231 cells = assay: MTT assay cytotoxicity MDA-MB-231; conditions: Homo sapiens
Experimental: The cells were incubated at 37° C. in a humidified atmosphere with 5% CO2.
100 μL of cells were added to each well of a 96 well microtiter plate at a concentration of 4×10^4 cells/mL and incubated overnight to allow proper adhesion. (RPMI 8226 cells were plated at 4×10^5 cells/mL). The cells were treated with the panel of test compounds at a series of concentrations, along with vehicle control DMSO and untreated cells as controls. After 48 h incubation, 20 μL of MTT reagent (3-(4,5-dimethylthiazol-2-yl)-2,5-diphenyltetrazolium bromide) in PBS (5 mg/mL) was added to each well of the plates. The plate was incubated for 2 h at 37° C. For adherent cell lines, the media was removed from each well of the plate and the resulting formazan crystals dissolved in 100 μL of DMSO. For RPMI 8226 cells, 200 ul of DMF/SDS mix (50% DMF. 10% w/v SDS pH<4) was used to solubilize the formazan crystals. Optical density (OD) at 490 nm was measured using a microplate reader. Cells treated with 1 μM phenyl arsine oxide (PAO) served as a positive cell-killing control. Technical replicates of these assays were performed in biological quadruplicate, and the three best values were used for analysis in order to eliminate outliers. Data presented are the average IC50 value calculated from at least 3 technical replicates with the corresponding standard deviation.

Jurkat cells = assay: Cell cycle assay (flow cytometry); type: cell-based, human
Experimental: Vybrant® DyeCycle™ Orange Stain was used for the cell cycle assay. The amount of fluorescence of DNA was used as a relative measure of a cell's stage in the cell cycle. 500,000 Jurkat cells were added to wells on a 24 well microtiter plate in 1 mL of supplemented RPMI media. The cells were then treated with Compound 1 (TABLE 2). Using the cells treated for 12 and 24 hours, stained DNA fluorescence was measured via flow cytometry. The cells were taken from each well, pelleted briefly, aspirated, resuspended in 300 μL of 2 μL/mL Vybrant® DyeCycle™ Orange Stain, incubated at 37° C. for 15 minutes, and analyzed by flow cytometry. Selecting whole cells based on forward and side scatter, stained DNA fluorescence was excited at 488 nm and measured at an emission wavelength of 585 nm, using amount of fluorescence as a means of distinguishing between populations of cells. Populations were identified as G1 for the peak associated with the lowest amount of fluorescence, S phase for increased fluorescence appearing as a shoulder off of the G1 peak, and G2/M for approximately 2 times the fluorescence as the G1 peak. Measurements were taken in biological triplicate and confirmed in technical triplicate.

[1] = biological target: T1, yeast proteasome yβ2 subunit (Saccharomyces cerevisiae, UniProt P25043+P25451); assay: Subunit selectivity, purified yeast proteasome yβ2; type: biochemical
T1 construct: measured using 8 μg/mL of purified yCP or iCP
Experimental: The compounds were diluted with lysis buffer; 10 μL of the compound-containing solution was added to the test wells at ten times the final concentration. […] The results are reported as the average of at least 3 technical replicates of IC50 values for proteasome inhibition.
Values and standard deviations were calculated from an assay performed in biological triplicate.

CC[C@H](C)[C@@H]1C(=O)O[C@H]1C(=O)N[C@H](C(=O)N[C@H](C(=O)OCc1ccccc1)C(C)C)C(C)C [Compound 8, Benzyl ((2R,3S)-3-((S)-sec-butyl)-4-oxooxetane-2-carbonyl)-L-valyl-L-valinate] was tested, and the IC50 (MDA-MB-231 cells; MDA-MB-231, 48 h, read-out: Cytotoxicity MDA-MB-231 IC50) was 359 ± 72 nM, the IC50 (MDA-MB-231 cells; MDA-MB-231, read-out: Cytotoxicity MDA-MB-231 IC50) was 380 ± 18.8 nM and the cell cycle arrest (Jurkat cells) was “cell cycle arrest in the G2/M phase”. For the same compound, the IC50 [1] was 26100 ± 2380 nM.
